Source: patent US20230131025A1, “QUINOLYL PHOSPHINE OXIDE COMPOUND, AND COMPOSITION AND APPLICATION THEREOF” (Betta Pharmaceuticals Co., Ltd., priority 2020, published 2023)

Tests used:
[1] = system: human epidermal cancer cells A431 carrying EGFR WT; assay: Cell proliferation experiment (CellTiter Glo, 72 hours); assay type: cell-based; conditions: Homo sapiens, A-431
Procedure, shortened: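 Cells seeded at 2000 or 3000/well and exposed 72 h to 9-point 3-fold dilutions, top final 10000 nM or 1111 nM, 0.1% DMSO. Viability by CellTiter-Glo luminescence. Inhibition relative to cell and medium controls; IC50 by four-parameter nonlinear regression.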

EGFR WT = EGFR WT (Homo sapiens, UniProt P00533); assay: Kinase inhibition assay (mobility shift); assay type: biochemical
Chain of EGFR WT (P00533 25-1210): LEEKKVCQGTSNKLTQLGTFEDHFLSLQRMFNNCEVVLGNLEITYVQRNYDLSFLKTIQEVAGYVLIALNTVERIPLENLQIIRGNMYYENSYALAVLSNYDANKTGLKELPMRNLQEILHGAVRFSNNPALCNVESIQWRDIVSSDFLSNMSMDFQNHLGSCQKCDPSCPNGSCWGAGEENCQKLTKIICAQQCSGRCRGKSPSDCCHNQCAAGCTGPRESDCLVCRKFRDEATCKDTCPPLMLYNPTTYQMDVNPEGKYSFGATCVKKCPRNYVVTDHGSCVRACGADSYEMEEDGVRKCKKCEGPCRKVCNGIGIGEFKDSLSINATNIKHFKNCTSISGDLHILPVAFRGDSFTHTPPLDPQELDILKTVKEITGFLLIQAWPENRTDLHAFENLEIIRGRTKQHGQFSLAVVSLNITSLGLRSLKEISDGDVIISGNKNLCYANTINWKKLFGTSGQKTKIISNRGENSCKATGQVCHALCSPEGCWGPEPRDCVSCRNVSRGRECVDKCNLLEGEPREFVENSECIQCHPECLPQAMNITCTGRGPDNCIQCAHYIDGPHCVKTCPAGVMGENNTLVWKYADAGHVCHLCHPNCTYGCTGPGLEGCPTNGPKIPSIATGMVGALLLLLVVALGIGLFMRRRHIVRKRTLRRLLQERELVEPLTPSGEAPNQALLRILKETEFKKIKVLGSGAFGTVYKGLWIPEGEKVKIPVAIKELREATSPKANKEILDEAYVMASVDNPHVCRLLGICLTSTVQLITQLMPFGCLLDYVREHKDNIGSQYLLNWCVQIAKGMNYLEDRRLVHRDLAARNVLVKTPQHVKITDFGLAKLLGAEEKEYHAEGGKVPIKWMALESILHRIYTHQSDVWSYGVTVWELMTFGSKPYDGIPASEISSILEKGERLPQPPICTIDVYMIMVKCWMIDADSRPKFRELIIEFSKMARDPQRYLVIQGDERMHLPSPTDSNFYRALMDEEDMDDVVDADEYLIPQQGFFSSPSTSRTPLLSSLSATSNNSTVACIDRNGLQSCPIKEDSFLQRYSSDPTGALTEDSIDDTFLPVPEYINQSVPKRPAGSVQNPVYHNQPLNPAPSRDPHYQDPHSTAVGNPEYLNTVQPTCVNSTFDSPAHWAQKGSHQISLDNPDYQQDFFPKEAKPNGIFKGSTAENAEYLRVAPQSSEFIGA
Procedure, shortened: (§1)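 Caliper mobility-shift read of substrate conversion after kinase-compound preincubation 10 min at room temperature, then ATP/substrate addition and reaction at room temperature. Ten-point 3-fold dilutions from 3,000 or 100 nM top; IC50 from variable-slope four-parameter fit of percent inhibition.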

IGF1R = IGF1R (Homo sapiens, UniProt P08069); assay: Kinase inhibition assay (mobility shift); assay type: biochemical
Chain of IGF1R (P08069 31-1367, species assumed): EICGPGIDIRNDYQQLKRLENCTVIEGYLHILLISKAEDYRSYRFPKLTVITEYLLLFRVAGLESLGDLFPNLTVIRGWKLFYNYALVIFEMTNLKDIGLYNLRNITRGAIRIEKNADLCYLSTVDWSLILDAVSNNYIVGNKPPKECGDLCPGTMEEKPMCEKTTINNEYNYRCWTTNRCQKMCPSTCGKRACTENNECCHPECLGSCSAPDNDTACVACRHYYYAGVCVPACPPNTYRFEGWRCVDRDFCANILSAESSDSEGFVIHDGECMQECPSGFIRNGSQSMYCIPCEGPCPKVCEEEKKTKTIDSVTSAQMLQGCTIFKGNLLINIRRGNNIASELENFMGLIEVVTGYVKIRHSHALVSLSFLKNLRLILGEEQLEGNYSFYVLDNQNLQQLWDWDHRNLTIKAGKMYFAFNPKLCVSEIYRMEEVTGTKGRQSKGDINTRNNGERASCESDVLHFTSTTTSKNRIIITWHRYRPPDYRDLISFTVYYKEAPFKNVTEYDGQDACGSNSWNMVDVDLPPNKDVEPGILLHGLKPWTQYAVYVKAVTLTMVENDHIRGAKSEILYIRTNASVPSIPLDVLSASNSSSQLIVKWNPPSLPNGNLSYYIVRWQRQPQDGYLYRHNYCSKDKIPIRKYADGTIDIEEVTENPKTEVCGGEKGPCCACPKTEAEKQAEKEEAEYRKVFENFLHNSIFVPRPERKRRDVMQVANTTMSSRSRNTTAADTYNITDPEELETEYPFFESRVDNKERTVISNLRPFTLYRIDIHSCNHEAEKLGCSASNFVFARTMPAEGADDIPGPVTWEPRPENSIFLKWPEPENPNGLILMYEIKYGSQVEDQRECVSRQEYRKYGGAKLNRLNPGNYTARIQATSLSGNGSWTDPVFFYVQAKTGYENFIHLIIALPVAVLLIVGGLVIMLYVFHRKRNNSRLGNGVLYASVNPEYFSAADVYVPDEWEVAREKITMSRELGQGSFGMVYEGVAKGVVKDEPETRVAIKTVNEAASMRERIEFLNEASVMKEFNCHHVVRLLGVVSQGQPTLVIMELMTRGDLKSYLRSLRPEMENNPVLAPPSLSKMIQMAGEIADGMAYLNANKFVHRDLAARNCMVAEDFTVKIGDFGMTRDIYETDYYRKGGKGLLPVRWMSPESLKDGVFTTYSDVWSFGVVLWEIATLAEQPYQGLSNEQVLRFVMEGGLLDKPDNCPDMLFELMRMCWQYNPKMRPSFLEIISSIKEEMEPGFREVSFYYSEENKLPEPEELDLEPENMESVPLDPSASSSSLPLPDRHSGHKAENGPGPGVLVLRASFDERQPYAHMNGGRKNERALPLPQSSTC
Procedure, shortened: as §1

EGFR Δ19del/T790M/C797S = EGFR Δ19del/T790M/C797S (Homo sapiens, UniProt P00533, T790M/C797S, form not given); assay: Kinase inhibition assay (mobility shift); assay type: biochemical
Chain of EGFR Δ19del/T790M/C797S (P00533 with tags, fused parts or gaps DEL746-750/T790M/C797S, form open): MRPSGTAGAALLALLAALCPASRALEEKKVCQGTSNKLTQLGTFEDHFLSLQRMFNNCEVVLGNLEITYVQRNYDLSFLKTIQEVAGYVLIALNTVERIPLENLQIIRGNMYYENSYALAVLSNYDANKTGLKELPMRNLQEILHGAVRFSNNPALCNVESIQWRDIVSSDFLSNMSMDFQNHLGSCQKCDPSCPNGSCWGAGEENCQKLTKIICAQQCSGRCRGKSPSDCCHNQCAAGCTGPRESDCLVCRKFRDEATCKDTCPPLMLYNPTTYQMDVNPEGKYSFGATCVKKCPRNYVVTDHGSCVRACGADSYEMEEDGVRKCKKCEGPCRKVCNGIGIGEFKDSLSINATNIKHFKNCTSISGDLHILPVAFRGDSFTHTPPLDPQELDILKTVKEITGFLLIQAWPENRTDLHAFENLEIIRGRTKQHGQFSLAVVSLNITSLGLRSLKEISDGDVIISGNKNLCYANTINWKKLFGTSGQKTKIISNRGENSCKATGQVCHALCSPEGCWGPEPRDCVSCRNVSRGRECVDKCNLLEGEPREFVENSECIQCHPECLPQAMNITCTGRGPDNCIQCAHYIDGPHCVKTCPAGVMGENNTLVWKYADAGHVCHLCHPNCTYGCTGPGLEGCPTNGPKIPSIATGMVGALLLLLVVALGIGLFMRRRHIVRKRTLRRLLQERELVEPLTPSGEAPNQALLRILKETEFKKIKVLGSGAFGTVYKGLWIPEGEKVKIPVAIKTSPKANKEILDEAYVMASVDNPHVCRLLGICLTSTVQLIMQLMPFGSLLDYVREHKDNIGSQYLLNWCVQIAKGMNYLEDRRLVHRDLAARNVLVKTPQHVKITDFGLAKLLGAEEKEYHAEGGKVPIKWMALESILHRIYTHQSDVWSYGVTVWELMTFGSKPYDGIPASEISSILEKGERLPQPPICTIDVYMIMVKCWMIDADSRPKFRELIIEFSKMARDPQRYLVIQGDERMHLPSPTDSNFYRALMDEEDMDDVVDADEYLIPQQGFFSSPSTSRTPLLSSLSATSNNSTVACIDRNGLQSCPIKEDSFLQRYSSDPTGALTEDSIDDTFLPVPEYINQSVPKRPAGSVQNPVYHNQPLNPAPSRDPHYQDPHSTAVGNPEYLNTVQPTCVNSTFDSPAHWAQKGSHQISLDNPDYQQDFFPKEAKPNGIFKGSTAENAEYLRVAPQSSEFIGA
Procedure, shortened: as §1

SMILES: COc1cc(N2CCC(N3CCN(C)CC3)CC2)c(C)cc1Nc1ncc(Br)c(Nc2ccc3nc(C4CC4)ccc3c2P(C)(C)=O)n1 [Compound J-022, (6-((5-Bromo-2-((2-methoxy-5-methyl-4-(4-(4-methylpiperazin-1-yl)piperidin-1-yl)phenyl)amino)pyrimidin-4-yl)amino)-2-cyclopropylquinolin-5-yl)dimethylphosphine oxide]
- IC50 [1]: 1130 nM
- IC50 (EGFR WT): 20.2 nM
- IC50 (IGF1R): 195 nM
- IC50 (EGFR Δ19del/T790M/C797S): 0.3 nM
